Source: patent US7592326B2, “Method for stimulating the immune, inflammatory or neuroprotective response” (priority 2004, dated 2009)

Key:
[1] = format: in vitro ADME, human
Procedure: Commercially supplied pooled human serum (100 uL) (Cambrex Bio Science Walkersville, Inc.) was diluted in ion-exchanged water. An aliquot of the resulting human serum solution was subjected to HPLC analysis (conditions: COSMOSIL 5C18-AR-II column (4.6×200 mm); buffer A; buffer B, 80% acetonitrile in water; gradient, 0-10 min A 100%, 10-60 min A:B=100:0 to A:B=40:60 in 50 min; detection 254 nm, flow rate, 1.0 mL/min, temperature 40° C.). Separately, a 100 uM of c-di-GMP solution in human serum was prepared by adding 100 uL of a 500 uM c-di-GMP aqueous solution to a mixture of 390 uL of human serum and 10 uL of 40 mM 2-methylbenzimidazole (an internal standard for estimating the extent of decomposition of c-di-GMP) in methanol. An aliquot of the test solution was diluted immediately after the preparation solution and then heated at 100° C. for 5 min to quench activity of enzymes. The resulting test sample was subjected to HPLC analysis after 24 h treatment. Peaks that appeared in both analyses were compared. Results are based on 3 independent experiments.

lung leukocytes = assay: Lung leukocyte accumulation in Klebsiella-infected mice (lung digest, flow cytometry); format: in vivo, Balb/c mice
[2] = test system: Primary hippocampal cells; assay: Staurosporine-induced cell death in primary hippocampal cultures (CellTiter 96 AQueous Assay); format: cell-based; conditions: 100 nM, 22 h
Procedure: To assess the role of cyclic dinucleotides in modulating the neurological response, i.e., prevent cell death induced by staurosporine (STS) in primary hippocampal nerve cells, the effects of c-di-GMP on hippocampal cells was analyzed. Primary hippocampal cells were prepared according to previously described methods (Pereira et al., 1993). Briefly, the hippocampi were dissected from the brain of 18-day-old fetal rats. Following enzymatic and mechanical dissociation, cells were plated at a density of 100,000 cells/well in 96-well plates pre-coated with matrigel. At the 7th day after plating, cultures were subjected to one of the following treatments: (i) vehicle (24 h), (ii) STS (100 nM, 22 h), (iii) c-di-GMP (24 h), (iv) c-di-GMP (2 h) followed by c-di-GMP -plus-STS (22 h), (v) c-di-GMP -plus-STS (24 h), or (vi) STS (2 h) followed by c-di-GMP -plus-STS (22 h). At the end of the treatments, cell viability was analyzed using CellTiter 96® AQueous Assay (Promega). The assay involves the spectrophotometric measurement (at 490 nm) of the mitochondrial conversion of a tetrazolium dye into a colorful product. The absorbance of the assay correlates with the number of metabolically active cells.

human basophils [3] = assay: IL-3 dependent IL-13 secretion by human basophils; format: cell-based; conditions: for inhibition of IL-13 induced by IL-3: 18-20 h culture, FIG. 18A
human basophils [4] = assay: IgE-dependent IL-4 secretion by human basophils; format: cell-based
Procedure: (§1) Studies investigating the effect of the TBDMS-cGpGp analog on IgE-dependent IL-4 and histamine secretion induced by cross-linking were then performed. […] The inhibition of IL-4 was evident using the TBDMS-cGpGp analog as well as the cGpAp analog. Note that IgE-mediated histamine release is 90% complete within 20 minutes after stimulation- histamine is preformed and store in cytoplasmic granules. Although IL-4 is not preformed, it is rapidly generated denovo and secreted within 3-6 hours. In performing these experiments, a standard protocol for testing various anti-allergic drugs was used.
(§2) Specifically, the basophils were pretreated 15 minutes with the analogs before adding anti-IgE antibody for activation. Culture supernatants were analyzed for histamine and IL-4 three hours later. Thus, unlike the IL-13 induced by IL-3 during an 18-20 h culture, the release of histamine and IL-4 are far more rapid under IgE crosslinking conditions. It may be that inhibition would be greater if a greater pre-incubation time was performed with the analogs. Additional experiments will test different pre-incubation times to determine whether greater inhibition is observed. It is important to note that neither analog induced histamine release or IL-4 when used alone at the 50 uM concentration. T this is additional evidence that the inhibitory effect in not due to toxicity- histamine would most likely be released if the analogs were causing cell lysis.
IL-4 measurements were made in an experiment where the cyclic dinucleotide analogs were tested in a 1 hour pretreatment of basophils before activating with anti-IgE antibody. The control release to anti-IgE antibody was 262 pg/106 basophils (a relatively robust response being that cell responsiveness decreases the longer the wait before activating). Both the TBMDS-cGpGp and cGpAp analogs produced ˜30% inhibition at the 50μM concentration. […] It may be that overnight incubation with cyclic dinucleotide (similar to the IL-13 inhibition studies) would show even greater inhibition.

human basophils [5] = assay: IgE-dependent histamine release by human basophils; format: cell-based; conditions: 15 minutes pretreatment
Procedure: as §1
as §2, with “T this is additional evidence that the inhibitory effect in not due to toxicity- histamine would most likely be released if the analogs were causing cell lysis.” left out

pDC = assay: Cytokine secretion by pDC treated with TBDMS analog; format: cell-based, human
Procedure: Whether or not TBDMS would directly induce (or affect CpG-dependent) cytokine (IL-6, TNF-alpha, IL-10) secretion was then tested. […] IL-6 was not measured. […] Cells from one of the 3 subjects did secrete 100-200 pg/10^6 cells more TNF-alpha than the ˜400 secreted in medium alone. The same pattern was seen using these cells when the combination of CpG and TMDMS was used. However, these effects were not evident for the other two pDC preparations.

basophils = assay: SOCS expression in basophils (real-time PCR); format: cell-based, human
Procedure: Whether or not cyclic dinucleotides affected induction of SOCS (Suppresser Of Cytokine Synthesis) expression in basophils treated with CDN's was then tested. […] Cells were treated for 18 h, total RNA isolated, and RT-PCR performed for SOCS-1, SOCS-3, and the HPRT housekeeping gene. The fact that cGpGp also induces SOCS-1 may explain why some inhibition of IL-3-induced IL-13 secretion is observed with this cyclic dinucleotide analog. […] In the current IL-13 assay, the cyclic dinucleotide is added simultaneously with IL-3. The TBDMS-cGpGp likely induces SOCS-1 expression faster and thus accounts for greater inhibition of IL-13. […] While modest inhibitory activity with cGpGp was observed, evidence that cGpGp induces SOCS-1 and sometimes better than TBDMS-cGpGp at this particular time point was observed. These differences might be explained by kinetics and it may be that SOCS gene expression would be higher following TBDMS-cGpGp treatment when examined at an earlier time point.

[6] = 50 uM, 15 minutes pretreatment, supernatants three hours later, FIG. 18B
[7] = 50μM, 1 hour pretreatment, control release 262 pg/106 basophils

With `Cc1nc2ccccc2[nH]1` [2-methylbenzimidazole, reference compound] as the compound, how does the “stability in human serum” value [1] read?
The value was “stable”.

And the “solubility in water, methanol, and acetonitrile” value (Solubility)?
Its value is “fairly soluble”.

Which results are given for `Nc1nc2c(ncn2[C@@H]2O[C@@H]3COP(=O)(O)O[C@H]3[C@H]2O)c(=O)[nH]1` [CTL, reference compound]?
Total number lung cells (lung leukocytes; i.n. pretreatment 48 and 24 hr prior, lung digests 48 hrs after K. pneumoniae (kp), uninfected 2.7 × 10^7): 3.57 × 10^7; αβTcr^+, CD69^+ (lung leukocytes; lung digests 48 hrs after kp, uninfected 0.33 × 10^5): 2.7 × 10^5; DX5^+, CD69^+ (lung leukocytes; lung digests 48 hrs after kp, uninfected 0.78 × 10^5): 2.7 × 10^5; PMN (lung leukocytes; lung digests 48 hrs after kp, uninfected 0.8 × 10^6): 7.35 × 10^6; DX5^+ (NK) (lung leukocytes; lung digests 48 hrs after kp, uninfected 1.3 × 10^6): 2.5 × 10^6; DX5^+, αβγδTcr^+(NK T^+) (lung leukocytes; lung digests 48 hrs after kp, uninfected 1.6 × 10^5): 4.7 × 10^5; Mono/Macrophage (lung leukocytes; lung digests 48 hrs after kp, uninfected 2.3 × 10^7): 2.88 × 10^7; αβTcr^+ (lung leukocytes; lung digests 48 hrs after kp, uninfected 2.6 × 10^6): 3.38 × 10^6

With `CN[C@@H]1C[C@H]2O[C@@](C)([C@@H]1OC)n1c3ccccc3c3c4c(c5c6ccccc6n2c5c31)C(=O)NC4` [STS, staurosporine, reference compound] as the compound, how does the “cell death in primary hippocampal cultures” value [2] read?
Its value is “caused significant cell death”.

With `CC(C)(C)[Si](C)(C)O[C@@H]1[C@@H]2OP(=O)(O)OC[C@H]3O[C@@H](n4cnc5c(=O)[nH]c(N)nc54)[C@H](O)[C@@H]3OP(=O)(O)OC[C@H]2O[C@H]1n1cnc2c(=O)[nH]c(N)nc21` [TBDMS-cGpGp, 2′-O-TBDMS-c-di-GMP] as the compound, how does the “inhibition of IL-13 induced by IL-3” value (human basophils [3]; 10 micromolar) read?
The value was 30-40%.

And the “inhibition of IL-13 induced by IL-3” value (human basophils [3]; 50 micromolar, at least 5 independent experiments)?
Its value is 70-80%.

And the “inhibition of IgE-dependent IL-4” value (human basophils [4]; [6])?
Its value is 30%.

And the “inhibition of IgE-dependent IL-4” value (human basophils [4]; [7])?
Its value is roughly 30%.

And the “effect on IgE-dependent histamine release” value (human basophils [5])?
The value was “essentially no effect”.

What about the “effect on TNF-alpha and IL-10” value (pDC; alone or with CpG) of the same compound?
Its value is “little to no effect”.

And the “TNF-alpha secreted above the ˜400 in medium alone” value (pDC; cells from one of the 3 subjects)?
The value was 100-200 pg/10^6 cells.

What about the IL-10 secretion (pDC; used by itself, n=3) of the same compound?
Its IL-10 secretion is “did not cause IL-10 secretion”.

And the “time of SOCS mRNA peak” value (basophils)?
Its value is roughly 12 h.

What about the “SOC-3 mRNA” value (basophils; 18 h treatment) of the same compound?
The value was “induced”.

And the “SOCS-1 mRNA” value (basophils; 18 h treatment)?
Its value is “induced”.

Which “effect on IL-13 induced by IL-3” value (human basophils [3]; under the conditions tested) does the source give for `Nc1nc2c(ncn2[C@@H]2O[C@@H]3COP(=O)(O)O[C@H]4[C@@H](O)[C@H](n5cnc6c(N)ncnc65)O[C@@H]4COP(=O)(O)O[C@H]3[C@H]2O)c(=O)[nH]1` [cGpAp] here?
Its value is “little effect”.

And the “inhibition of IgE-dependent IL-4” value (human basophils [4]; [6])?
Its value is “evident”.

What about the “inhibition of IgE-dependent IL-4” value (human basophils [4]; [7]) of the same compound?
Its value is roughly 30%.

Which “enhancement of IL-13 induced by IL-3” value (human basophils [3]; two experiments) does the source give for `Nc1nc2c(ncn2[C@@H]2O[C@@H]3COP(=O)(O)O[C@H]4[C@@H](O)[C@H](n5cnc6c(=O)[nH]cnc65)O[C@@H]4COP(=O)(O)O[C@H]3[C@H]2O)c(=O)[nH]1` [cGpIp] here?
Its value is 25%.
